Converted amounts (≈) assume the structure as drawn.
Legend:
[1] = Solubility in physiologic buffer (PBS, pH 7.4) by nephelometry; type: physicochemical; settings: aqueous buffer, thermodynamic from solid, phosphate buffered saline, top concentration 500 mg/mL, serial 1:2 dilutions
Experimental: (§1) The solubility of Compound 45 and carnosine in physiologic buffer (phosphate buffered saline, pH 7.4; PBS) were determined using a BMG Labtech NEPHELOstar nephelometer (Offenburg, Germany) with Galaxy analytical software, version 4.32R2. Stock solutions of each compound were prepared initially in dimethyl sulfoxide (DMSO); Compound 45 was soluble at a concentration of 50 mM in DMSO, while carnosine was not. Subsequently, dilution series of both compounds were prepared directly in PBS (pH 7.4) for evaluation of solubility using nephlometry, with a top concentration of 500 mg/mL for each compound and serial 1:2 dilutions. A positive control compound was included to qualitatively illustrate concentration-solubility relationships using heat maps. Compound 45 was soluble in physiologic buffer at a concentration of 500 mg/mL, while carnosine was soluble only at concentrations of 250 mg/mL.

[2] = Solubility of stock solutions in dimethyl sulfoxide (DMSO); type: physicochemical; settings: organic solvent or mixture, stock solution in dimethyl sulfoxide
Experimental: as §1

[3] = Storage stability by reversed-phase HPLC quantitation of degradation products (impurities); type: physicochemical; settings: storage for 1 or 2 months at 5° C., 25° C./60% RH and 40° C./75% RH; FIGS. 1-3
Experimental: The stability of Compound 45 and N-acetylcysteine amide (NACA) were determined using reversed-phase HPLC quantitation of the appearance of degradation products (impurities) after storage of the compounds for 1 or 2 months at 5° C., 25° C./60% relative humidity (RH), and 40° C./75% RH.
The chromatographic system used was an Agilent 1100 HPLC comprised of a degasser (model G1322A), pump (model G1311A), autosampler (model G1329A), column compartment (model G1316A), and a diode array detector (model G1315A). Agilent Chemstation software Rev. B.03.02 [341] was used to acquire and analyze all chromatographic data. […] Assay, identity, and purity of Compound 45 and NACA, and quantitation of impurities arising over time, was accomplished by a reversed-phase isocratic method using a Phenomenex Synergi Polar-RP (250×4.6 mm, […]) column at 15° C., 0.2% perchloric acid (PCA) in water and acetonitrile as mobile phase, UV detection at 210 nm, and a standard run time of 20 minutes. Standard solutions of Compound 45 and NACA were prepared in 0.2% perchloric acid to generate standard curves for quantitation of Compound 45 and NACA. Replicate samples of each analyte were collected at study initiation (baseline), after 1 month of storage under the various conditions and after 2 months of storage for quantitation of parent and impurities. […]

[4] = Hydrolysis in human whole blood (disappearance of Compound 45, appearance of NACA and carnosine); type: in vitro ADME; settings: 37° C.
Experimental: To determine hydrolysis of Compound 45 and appearance of NACA and carnosine in blood, samples of human whole blood from healthy donors anti-coagulated with sodium heparin were thermally equilibrated to, and maintained at 37° C. in a water bath. Compound 45 was then spiked from a single freshly prepared stock solution into blood aliquots to create separate samples of varying Compound 45 starting concentrations (135 μM, 13.5 μM, 10.9 μM [5 μg/mL], and 2.2 μM [1 μg/mL]). Immediately after spiking, tubes were mixed by very gently rocking tubes manually for 5 minutes to ensure homogeneity and remained in the 37° C. water bath until all time points were collected. […] Plasma samples were processed for quantitation of the disappearance (hydrolysis) of Compound 45 and the appearance of NACA or carnosine, as described below. […]
Samples in 96-well plates were analyzed on a Waters Acquity UPLC™ liquid chromatograph interfaced with a Thermo Scientific TSQ Vantage triple quadrupole mass spectrometer with electrospray ionization in the positive ion mode. […]
Compound 45, Carnosine and the NACA-thio-ether derivative product eluted at approximately 1.3 minutes. Compound 45 was detected by selected reaction monitoring of the mass-to-charge (m/z) 371 to 110 transition. Carnosine was detected by selected reaction monitoring of the m/z 227 to 110 transition. […]

With `CC(=O)N[C@@H](CSC(=O)[C@H](Cc1cnc[nH]1)NC(=O)CCN)C(N)=O` [Compound 45, (S)-S((R)-2-acetamido-3-amino-3-oxopropyl) 2-(3-aminopropanamido)-3-(1H-imidazol-5-yl)propanethioate] the solubility [1] was ≥ 500 mg/mL, the solubility [2] was ≥ 50 mM and the “extent of degradation as measured by the percent change (increase) from baseline in impurities” value [3] was “less than the increase in impurities for NACA”. For the same compound, the “metabolism of thioester linkage in blood” value [4] was “rapidly metabolized in blood”.
With `NCCC(=O)N[C@@H](Cc1cnc[nH]1)C(=O)O` [carnosine, reference compound] the solubility [1] was 250 mg/mL (≈ 1110 mM) and the solubility [2] was < 50 mM.
